Columns and labels:
[1] = mouse; ref [28]; cited from earlier work
[2] = system: CB2 receptor; settings: cited from earlier work; for Ki: read-out: Affinity for the CB2 receptor, Merck Frosst group, ref [29]
[3] = system: CB1 receptor; settings: Merck Frosst group; ref [29]; cited from earlier work
[4] = biological target: T1, CB2 receptor (Homo sapiens, UniProt P34972); settings: ref [31], cited from earlier work
[5] = biological target: CB1 receptor (Rattus norvegicus, UniProt P20272); settings: read-out: Ki (nM) CB1; mean ± SEM; ref [31]; cited from earlier work
Sequence of CB1 receptor (Rattus norvegicus, UniProt P20272) (P20272 whole entry): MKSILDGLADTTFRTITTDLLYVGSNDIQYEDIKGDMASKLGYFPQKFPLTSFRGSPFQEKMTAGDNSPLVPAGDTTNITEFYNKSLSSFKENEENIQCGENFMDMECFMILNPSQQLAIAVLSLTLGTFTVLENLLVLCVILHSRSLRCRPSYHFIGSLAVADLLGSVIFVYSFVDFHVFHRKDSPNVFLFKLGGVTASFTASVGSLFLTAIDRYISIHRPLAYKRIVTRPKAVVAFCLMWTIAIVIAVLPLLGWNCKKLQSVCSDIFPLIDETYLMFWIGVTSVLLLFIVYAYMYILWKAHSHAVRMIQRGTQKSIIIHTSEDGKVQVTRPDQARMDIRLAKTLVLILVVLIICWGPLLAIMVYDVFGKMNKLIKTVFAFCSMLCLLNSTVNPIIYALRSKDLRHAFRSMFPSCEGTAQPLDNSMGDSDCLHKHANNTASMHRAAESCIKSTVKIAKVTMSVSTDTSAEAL

[6] = biological target: T1, CB2 receptor; test: GTPγS binding in CHO cells stably expressing the human CB2 receptor; type: biochemical; settings: for Efficacy at the CB2 receptor: GTPγS binding, relative to CP-55,940

T1 sequence (P34972 whole entry): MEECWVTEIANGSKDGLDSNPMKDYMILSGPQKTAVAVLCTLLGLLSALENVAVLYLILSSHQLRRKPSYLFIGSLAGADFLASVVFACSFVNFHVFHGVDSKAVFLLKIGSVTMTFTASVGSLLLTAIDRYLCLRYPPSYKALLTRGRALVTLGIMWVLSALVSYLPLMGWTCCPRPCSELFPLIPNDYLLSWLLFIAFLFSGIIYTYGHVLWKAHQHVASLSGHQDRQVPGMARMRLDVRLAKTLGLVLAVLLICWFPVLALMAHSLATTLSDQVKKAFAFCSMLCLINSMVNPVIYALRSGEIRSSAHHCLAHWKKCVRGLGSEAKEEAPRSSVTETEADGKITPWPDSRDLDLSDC

For CCCCCCC(C)(C)c1ccc2c(c1)OC(C)(C)[C@@H]1CC=C(CO)C[C@@H]21 [Compound 2, 11-hydroxy-3-(1′,1′-dimethylheptyl)-1-deoxy-Δ^8-THC], the Potency in vivo [1] is listed as “potent cannabinoid in vivo in the mouse”.

For CCCCCCC(C)(C)c1ccc2c(c1)OC(C)(C)[C@@H]1CC=C(C)C[C@@H]21 [Compound 3, 3-(1′,1′-dimethylheptyl)-1-deoxy-Δ^8-THC], the “Selectivity for the CB2 receptor” value ([2]; ref [28]) is given as “nearly ten-fold selectivity” and the Potency in vivo [1] is given as “potent in vivo”.

In the case of CCCCCCC(C)(C)c1cc(OC)c2c(c1)OC(C)(C)C1CC=C(C)CC21 (stereo not shown) [Compound 4, 1-methoxy-Δ^8-THC-DMH], the “Affinity for the CB1 receptor” value [3] is given as “negligible affinity” and the Ki [2] is given as roughly 20 nM.

For C=C1CCC2C(C1)c1c(OC)cc(C(C)(C)CCCCCC)cc1OC2(C)C (stereo not shown) [Compound 5, 1-methoxy-Δ^9(11)-THC-DMH], the “Affinity for the CB1 receptor” value [3] is given as “negligible affinity” and the Ki [2] is given as roughly 20 nM.

In the case of CCCCCCC(C)(C)c1cc(OC)c2c(c1)OC(C)(C)C1CC=C(C)CC21 (stereo not shown) [JWH-143], the “Selectivity for the CB2 receptor” value ([4]; 1-methoxy series) is given as 12 fold.

In the case of CCCC(C)(C)c1cc(OC)c2c(c1)OC(C)(C)[C@@H]1CC=C(C)C[C@@H]21 [JWH-214], the Ki [5] is given as greater than 10000 nM and the Ki ([4]; read-out: Ki (nM) CB2, mean ± SEM) is given as 325 ± 70 nM.

For CCCCCCC(C)(C)c1cc(Br)c2c(c1)OC(C)(C)[C@@H]1CC=C(C)C[C@@H]21 [JWH-383, 1-Bromo-1-deoxy-3-(1′,1′-dimethylheptyl)-Δ^8-tetrahydrocannabinol], the “Efficacy at the CB2 receptor” value [6] was “full agonists”.

In the case of CCCCCC(C)(C)c1cc(Br)c2c(c1)OC(C)(C)[C@@H]1CC=C(C)C[C@@H]21 [JWH-393, 1-Bromo-1-deoxy-3-(1′,1′-dimethylhexyl)-Δ^8-tetrahydrocannabinol], the “Efficacy at the CB2 receptor” value [6] is reported as “full agonists” and the Emax ([6]; read-out: Emax (% CP-55940), percent relative to 3 μM CP-55,940, mean ± SEM) is reported as 98.3 ± 6.8%.

— PMC2978510 (Bioorganic & medicinal chemistry, 2010)
